{"source": "patent US20220362275A1", "about": "“Method and Compositions for Treating Glioblastoma” (PHOENIX BIOTECHNOLOGY, INC., priority 2019, published 2022)", "key": {"GBM [1]": {"system": "GBM", "details": "cited from earlier work"}, "[2]": {"details": "cited from earlier work"}, "GBM9 stem cell line": {"system": "GBM9 stem cell line", "assay": "High throughput growth/viability assay (Cell Titer Glo-3D), GBM9", "format": "cell-based", "details": "FIG. 17E", "method": "(§1) A total of 500 GBM9 cells or 1,000 GS28 cells per well suspended in 50 ul of media are seeded into Greiner Black 384-well plates (Cat #781091) using Multidrop Combi liquid dispenser (ThermoFisher).\n(§2) The cells are allowed to recover and form a monolayer overnight at 37 C in a humidified chamber with 5% CO2.\n(§3) After recovery, 50 nl of each drug are transferred into well using an Echo 550 acoustic dispensing platform (Labcyte).\n(§4) In the combination screen, two or three drugs are tested with a fixed volume of DMSO ([…]) and two biological replicates. Each assay plate contains a fixed concentration of drug in addition to a negative control (0.1% DMSO), a positive control (10 uM Doxorubicin), and an 8-point dose response curve of the positive controls. Each well image is taken using the ImageXpress Micro Conforcal High Content Imaging System (MolecularDevices) everyday four times.\n(§5) After 72 hr incubation in the presence of drug, plates are aspirated for left 25 ul and then, 25 ul of Cell Titer Glo-3D (Promega) are added and incubated for 20 minutes. Assay plates are read on the Synergy Neo2 Hybrid Multi-Mode Microplate Reader (BioTek)."}, "GS28 stem cell line": {"system": "GS28 stem cell line", "assay": "High throughput growth/viability assay (Cell Titer Glo-3D), GS28", "format": "cell-based", "details": "FIG. 17D", "method": "as §1, §2, §3, §4, §5"}, "[3]": {"assay": "Oral bioavailability anticipated from human clinical data", "details": "in vivo, based on human clinical data, read-out: part of an administered dose orally bioavailable"}, "GBM [4]": {"system": "GBM", "details": "addition to standard treatment; cited from earlier work"}, "[5]": {"system": "caspase 3, 8 and 9 in human GBM U87MG, U251 and T98 cells", "assay": "Caspase 3, 8 and 9 enzymatic activity (chromogenic substrates)", "format": "cell-based", "details": "pan-caspase inhibitor added", "method": "For cell cycle analysis, cells (2.5×10^6) grown in 100-mm dishes were treated with PBI-05204 (0.5-2.5 μg/ml) for 24 hr. Cells were subjected to trypsinization and centrifugation, and the pellets were suspended and washed in 1× phosphate-buffered saline solution (PBS) and were fixed overnight in 70% ethanol at 4° C. The cells were then washed with 1×PBS and were suspended in PBTB staining solution containing PBS, 0.5% bovine serum albumin (BSA), 0.005% Tween-20, propidium iodide (10 μg/ml) and DNase-free RNase (1 μg/ml). Cells were incubated in the dark for 30 min at 37° C. before fluorescence-activated cell-sorting (FACS) analysis using a BD FACS Caliber flow cytometer (BD Biosciences, San Jose, Calif.). The percentage of cells in each phase of the cell cycle was estimated from the DNA histogram content. Apoptosis was evaluated by APOSTRAND™ ELISA apoptosis detection kit (3V Chimica S.r.l. Rome, Italy) and by caspase-specific chromogenic substrates at 450 nm in an ELISA plate reader such as Ac-DEVD-pNA (caspase-3), Ac-IETD-pNA (caspase 8) and Ac-LEHD-pNA (caspase 9) purchased from Kaneka Eurogentec SA (Seraing, Belgium)."}, "[6]": {"details": "all concentrations ranging from 1×10^−4.5 to 1×10^−7 M"}}, "note": "“Also recorded” adds a separate entry of the source. Where two headings read alike, the source gives them in different places."}
{"molecule": "Cn1nnc2c(C(N)=O)ncn2c1=O", "note": "[TMZ, temozolomide]", "values": [{"measurement": "grade ≥3 toxicity", "setting": "GBM [1]; ddTMZ arm", "result": 53, "unit": "%"}, {"measurement": "grade ≥3 toxicity", "setting": "GBM [1]; sdTMZ arm", "result": 34, "unit": "%"}, {"measurement": "entry into the cerebrospinal fluid", "setting": "[2]; in vivo", "result": "readily enters"}, {"measurement": "pharmacokinetics", "setting": "[2]; in vivo", "result": "linear"}, {"measurement": "bioavailability", "setting": "[2]; oral", "result": "excellent"}]}
{"molecule": "C[C@H]1[C@H](C)CC[C@]2(C(=O)O)CC[C@]3(C)C(=CC[C@@H]4[C@@]5(C)CC[C@H](O)C(C)(C)[C@@H]5CC[C@]43C)[C@H]12", "note": "[Ursolic acid, ursolic acid]", "values": [{"measurement": "activity at concentrations below about 10 microM", "setting": "GBM9 stem cell line", "result": "little to no activity"}, {"measurement": "activity at concentrations below about 5.6 microM", "setting": "GS28 stem cell line", "result": "little to no activity"}]}
{"molecule": "CO[C@H]1C[C@H](O[C@H]2CC[C@@]3(C)[C@H](CC[C@@H]4[C@@H]3CC[C@]3(C)[C@@H](C5=CC(=O)OC5)[C@@H](OC(C)=O)C[C@]43O)C2)O[C@@H](C)[C@@H]1O", "note": "[oleandrin]", "values": [{"measurement": "bioavailability", "setting": "[3]", "result": "50 to 75", "unit": "%"}]}
{"molecule": "CC1(C)CC[C@]2(C(=O)O)CC[C@]3(C)C(=CC[C@@H]4[C@@]5(C)CC[C@H](O)C(C)(C)[C@@H]5CC[C@]43C)[C@@H]2C1", "note": "[oleanolic acid]", "values": [{"measurement": "activity (inhibition of growth of GBM stem cells)", "setting": "GBM9 stem cell line; [6]", "result": "very poor activity; also recorded: little to no activity"}, {"measurement": "activity (inhibition of growth of GBM stem cells)", "setting": "GS28 stem cell line; [6]", "result": "very poor activity"}]}
{"molecule": "bevacizumab", "values": [{"measurement": "overall survival (OS)", "setting": "GBM [4]", "result": "no increase"}, {"measurement": "progression-free survival (PFS)", "setting": "GBM [4]", "result": "improved"}]}
{"molecule": "z-VAD-fmk", "values": [{"measurement": "PBI-05204 induced caspase 3 activity", "setting": "[5]", "result": "largely inhibited"}]}
